Reference: patent US20260356804A1, “SODIUM CHANNEL BLOCKING COMPOUNDS, DERIVATIVES THEREOF, AND METHODS OF THEIR USE” (LATIGO BIOTHERAPEUTICS, INC., priority 2022, published 2026)
Read-outs that look alike come from different tables or passages of the source.

Biological target: T1, human Nav1.8/b3 (Homo sapiens, UniProt Q9Y5Y9)
T1 construct: expressed in transfected cells; host or cells: CHO
Experiment: Compound Profiling Human NaV1.8/β3 Cell Line—SyncroPatch384PE Assay (automated patch clamp, stably transfected CHO cells)
Assay type: cell-based
Settings: Nav1.8/b3 CHO cells

[1] = P1 (IC50, resting state block), P1 measurement, resting state block, holding potential −120 mV, third set of compounds
[2] = P2 (IC50, inactivated state block), P2 measurement, inactivated state block, inactivation step −35 mV 10 sec, third set of compounds
[3] = P1 (IC50, resting state block), P1 measurement, resting state block, holding potential −120 mV, second set of compounds
[4] = P2 (IC50, inactivated state block), P2 measurement, inactivated state block, inactivation step −35 mV 10 sec, second set of compounds
[5] = P1 measurement, resting state block, holding potential −120 mV, third set of compounds, read-out: P1 (IC50, resting state block)
[6] = P2 measurement, inactivated state block, inactivation step −35 mV 10 sec, third set of compounds, read-out: P2 (IC50, inactivated state block)
[7] = P1 (IC50, resting state block), P1 measurement, resting state block, holding potential −120 mV, first set of compounds
[8] = P2 (IC50, inactivated state block), P2 measurement, inactivated state block, inactivation step −35 mV 10 sec, first set of compounds
[9] = P1 (IC50, resting state block), P1 measurement, resting state block, holding potential −120 mV, fourth set of compounds
[10] = P2 (IC50, inactivated state block), P2 measurement, inactivated state block, inactivation step −35 mV 10 sec, fourth set of compounds

T1 sequence (Q9Y5Y9 whole entry): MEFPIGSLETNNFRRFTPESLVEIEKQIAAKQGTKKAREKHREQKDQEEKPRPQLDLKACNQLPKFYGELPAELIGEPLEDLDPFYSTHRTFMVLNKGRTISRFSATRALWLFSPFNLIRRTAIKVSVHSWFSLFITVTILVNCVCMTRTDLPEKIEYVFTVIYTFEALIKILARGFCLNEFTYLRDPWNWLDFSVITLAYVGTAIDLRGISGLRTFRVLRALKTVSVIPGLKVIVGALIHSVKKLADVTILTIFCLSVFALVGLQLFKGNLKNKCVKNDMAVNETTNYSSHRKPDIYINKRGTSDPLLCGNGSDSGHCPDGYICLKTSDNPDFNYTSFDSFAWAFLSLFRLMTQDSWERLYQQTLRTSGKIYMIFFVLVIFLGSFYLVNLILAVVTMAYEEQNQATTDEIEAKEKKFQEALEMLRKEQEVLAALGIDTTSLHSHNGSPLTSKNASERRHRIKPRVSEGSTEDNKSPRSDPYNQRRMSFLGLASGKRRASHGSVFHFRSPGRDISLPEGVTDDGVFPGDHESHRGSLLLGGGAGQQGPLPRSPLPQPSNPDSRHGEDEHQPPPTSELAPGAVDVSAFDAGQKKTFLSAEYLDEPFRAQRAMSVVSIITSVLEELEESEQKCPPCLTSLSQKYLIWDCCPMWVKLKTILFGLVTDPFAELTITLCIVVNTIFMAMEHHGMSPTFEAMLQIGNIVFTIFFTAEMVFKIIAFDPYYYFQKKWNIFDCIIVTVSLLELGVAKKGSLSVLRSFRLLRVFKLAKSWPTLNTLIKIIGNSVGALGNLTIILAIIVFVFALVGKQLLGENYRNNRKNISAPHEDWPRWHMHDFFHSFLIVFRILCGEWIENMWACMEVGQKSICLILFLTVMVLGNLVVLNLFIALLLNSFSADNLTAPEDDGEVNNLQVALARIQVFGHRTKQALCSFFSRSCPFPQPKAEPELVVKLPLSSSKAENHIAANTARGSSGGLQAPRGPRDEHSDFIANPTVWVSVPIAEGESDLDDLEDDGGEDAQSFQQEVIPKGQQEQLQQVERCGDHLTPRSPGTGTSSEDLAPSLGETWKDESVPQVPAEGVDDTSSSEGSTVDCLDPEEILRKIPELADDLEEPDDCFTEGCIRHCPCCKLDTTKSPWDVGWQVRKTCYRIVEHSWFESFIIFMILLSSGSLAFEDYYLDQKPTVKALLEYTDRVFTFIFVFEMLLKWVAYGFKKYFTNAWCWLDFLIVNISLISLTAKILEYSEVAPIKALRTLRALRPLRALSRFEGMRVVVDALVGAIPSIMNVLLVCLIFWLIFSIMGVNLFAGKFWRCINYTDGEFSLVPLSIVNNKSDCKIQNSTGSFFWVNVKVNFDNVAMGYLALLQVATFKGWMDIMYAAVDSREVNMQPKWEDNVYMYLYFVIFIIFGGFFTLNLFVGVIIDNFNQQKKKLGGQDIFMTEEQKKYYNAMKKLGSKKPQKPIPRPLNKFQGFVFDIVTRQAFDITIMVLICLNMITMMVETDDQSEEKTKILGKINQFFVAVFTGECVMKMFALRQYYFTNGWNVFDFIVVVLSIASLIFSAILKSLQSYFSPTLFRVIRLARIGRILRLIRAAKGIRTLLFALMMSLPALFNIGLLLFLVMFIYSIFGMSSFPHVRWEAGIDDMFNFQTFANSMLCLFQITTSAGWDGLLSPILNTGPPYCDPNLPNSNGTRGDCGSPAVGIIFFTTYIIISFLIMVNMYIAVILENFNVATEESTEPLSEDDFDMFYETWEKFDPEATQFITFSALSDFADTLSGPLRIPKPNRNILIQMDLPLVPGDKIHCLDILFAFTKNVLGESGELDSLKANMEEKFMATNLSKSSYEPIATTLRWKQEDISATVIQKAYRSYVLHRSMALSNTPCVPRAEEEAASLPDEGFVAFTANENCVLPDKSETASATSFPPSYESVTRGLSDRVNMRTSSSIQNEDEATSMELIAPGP
T1 sequence (Q9NY72 23-215 partner): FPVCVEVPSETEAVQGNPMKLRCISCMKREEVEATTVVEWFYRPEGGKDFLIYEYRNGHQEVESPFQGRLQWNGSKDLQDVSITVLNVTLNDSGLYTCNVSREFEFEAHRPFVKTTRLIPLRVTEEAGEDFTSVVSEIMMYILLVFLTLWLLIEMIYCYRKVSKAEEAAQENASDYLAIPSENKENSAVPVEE

Cc1nc(F)ccc1Oc1c(C(F)(F)F)ncc(F)c1C(=O)Nc1cccc([S@](C)(=N)=O)c1 [Example 36C, (R)-5-fluoro-3-((6-fluoro-2-methylpyridin-3-yl)oxy)-N-(3-(S-methylsulfonimidoyl)phenyl)-2-(trifluoromethyl)isonicotinamide]
IC50 [1]: > 200 nM
IC50 [2]: > 200 nM

Cc1nc(F)ccc1Oc1cc(C(F)(F)F)ccc1C(=O)Nc1cccc([S@@](C)(=O)=NC(=O)[C@@H](C)N)c1 [Example 9B, N-(3-((R)—N-(D-alanyl)-S-methylsulfonimidoyl)phenyl)-2-((6-fluoro-2-methylpyridin-3-yl)oxy)-4-(trifluoromethyl)benzamide]
IC50 [3]: < 5 nM
IC50 [4]: < 5 nM

Cc1nc(F)ccc1Oc1ncc(C(F)(F)F)c(C)c1C(=O)Nc1cccc(S(C)(=O)=NCC2(N)CC2)c1 (stereo not drawn) [Example 92C]
IC50 [5]: < 5 nM
IC50 [6]: < 5 nM

Cc1nc(F)ccc1Oc1ncc(C(F)(F)F)c(C)c1C(=O)Nc1cccc(S(N)(=O)=O)c1 [Example 8C, 2-((6-fluoro-2-methylpyridin-3-yl)oxy)-4-methyl-N-(3-sulfamoylphenyl)-5-(trifluoromethyl)nicotinamide]
IC50 [1]: < 5 nM
IC50 [2]: < 5 nM

Cc1nc(F)ccc1Oc1nc(C2CC2)c(C(F)(F)F)c(C)c1C(=O)Nc1cccc([S@](C)(=N)=O)c1 [Example 108C]
IC50 (read-out: P1 (IC50, resting state block), P1 measurement, resting state block, holding potential −120 mV, third set of compounds): < 5 nM
IC50 (read-out: P2 (IC50, inactivated state block), P2 measurement, inactivated state block, inactivation step −35 mV 10 sec, third set of compounds): < 5 nM

Cc1nc(F)ccc1Oc1ccc(C(F)(F)F)c(C)c1C(=O)Nc1cccc([S@@](C)(=O)=NC(=O)[C@H](C)O)c1 [Example 23B]
IC50 [3]: < 5 nM
IC50 [4]: < 5 nM

CN=[S@](C)(=O)c1cccc(NC(=O)c2c(Oc3ccc(F)nc3C)ncc(C(F)(F)F)c2C)c1 [Example 33C, (R)—N-(3-(N,S-dimethylsulfonimidoyl)phenyl)-2-((6-fluoro-2-methylpyridin-3-yl)oxy)-4-methyl-5-(trifluoromethyl)nicotinamide]
IC50 [1]: 5 to 50 nM
IC50 [2]: < 5 nM

Cc1nc(F)ccc1Oc1cc(C(F)(F)F)c(Cl)cc1C(=O)Nc1ccc(F)c([S+](C)[O-])c1 (stereo not drawn) [Example 69A]
IC50 [7]: < 5 nM
IC50 [8]: < 5 nM

Cc1nc(F)ccc1Oc1cc(C(F)(F)F)c(Cl)c(F)c1C(=O)Nc1cccc([S@](C)(=N)=O)c1 [Example 43A]
IC50 [7]: < 5 nM
IC50 [8]: < 5 nM

COc1cc(C#N)ccc1Oc1ncc(C(F)(F)F)c(C)c1C(=O)Nc1cccc([S@](C)(=N)=O)c1 [Example 5C, (R)-2-(4-cyano-2-methoxyphenoxy)-4-methyl-N-(3-(S-methylsulfonimidoyl)phenyl)-5-(trifluoromethyl)nicotinamide]
IC50 [1]: < 5 nM
IC50 [2]: < 5 nM

Cc1nc(F)ccc1Oc1cc(C(F)(F)F)c(Cl)cc1C(=O)Nc1ccc(F)c([S@+](C)[O-])c1 [Example 55A]
IC50 [7]: < 5 nM
IC50 [8]: < 5 nM

CNCC(=O)N=[S@](C)(=O)c1cccc(NC(=O)c2ccc(C(F)(F)F)cc2Oc2ccc(F)nc2C)c1 [Example 10B, (R)-2-((6-fluoro-2-methylpyridin-3-yl)oxy)-N-(3-(S-methyl-N-(methylglycyl)sulfonimidoyl)phenyl)-4-(trifluoromethyl)benzamide]
IC50 [3]: 5 to 50 nM
IC50 [4]: 5 to 50 nM

Cc1nc(F)ccc1Oc1ccc(C(F)(F)F)c(F)c1C(=O)Nc1cccc([S@@](C)(=O)=NC(=O)[C@@H](C)N)c1 [Example 15B, N-(3-((R)—N-(D-alanyl)-S-methylsulfonimidoyl)phenyl)-2-fluoro-6-((6-fluoro-2-methylpyridin-3-yl)oxy)-3-(trifluoromethyl)benzamide]
IC50 [3]: < 5 nM
IC50 [4]: < 5 nM

Cc1nc(F)ccc1Oc1ncc(C(F)(F)F)c(C)c1C(=O)Nc1cccc([S@@](C)(=O)=NC(=O)[C@H](C)O)c1 [Example 13D, 2-((6-fluoro-2-methylpyridin-3-yl)oxy)-N-(3-((R)—N—((S)-2-hydroxypropanoyl)-S-methylsulfonimidoyl)phenyl)-4-methyl-5-(trifluoromethyl)nicotinamide]
IC50 [9]: < 5 nM
IC50 [10]: < 5 nM

Cc1nc(F)ccc1Oc1ncc(C(F)(F)F)c(C)c1C(=O)NC12CC(C(N)=O)(C1)C2 [Example 112C]
IC50 [1]: > 200 nM
IC50 [2]: > 200 nM

Cc1nc(F)ccc1Oc1nnc(C(F)(F)F)c(C)c1C(=O)Nc1cccc([S@@](C)(=O)=NC(=O)CN)c1 [Example 24D, (R)-3-((6-fluoro-2-methylpyridin-3-yl)oxy)-N-(3-(N-glycyl-S-methylsulfonimidoyl)phenyl)-5-methyl-6-(trifluoromethyl)pyridazine-4-carboxamide]
IC50 [9]: 5 to 50 nM
IC50 [10]: 5 to 50 nM

Cc1nc(F)ccc1Oc1ccc(C(F)(F)F)c(C)c1C(=O)Nc1cccc([S@@](C)(=O)=NC(=O)[C@@H]2CCCN2)c1 [Example 22B]
IC50 [3]: < 5 nM
IC50 [4]: < 5 nM

Cc1nc(F)ccc1Oc1cc(C(F)(F)F)c(Cl)c(C)c1C(=O)Nc1ccnc([S@](C)(=N)=O)c1 [Example 65A]
IC50 [7]: < 5 nM
IC50 [8]: < 5 nM

Cc1nc(F)ccc1Oc1ncc(C(F)(F)F)c(C)c1C(=O)Nc1cccc([S@@](C)(=O)=NC(=O)[C@H]2CCOC2)c1 [Example 15D, 2-((6-fluoro-2-methylpyridin-3-yl)oxy)-4-methyl-N-(3-((R)—S-methyl-N—((S)-tetrahydrofuran-3-carbonyl)sulfonimidoyl)phenyl)-5-(trifluoromethyl)nicotinamide]
IC50 [9]: < 5 nM
IC50 [10]: < 5 nM

COc1cc(C#N)ccc1Oc1ncc(-c2cnn(C)c2)c(C)c1C(=O)Nc1cccc([S@](C)(=N)=O)c1 [Example 1C, (R)-2-(4-cyano-2-methoxyphenoxy)-4-methyl-5-(1-methyl-1H-pyrazol-4-yl)-N-(3-(S-methylsulfonimidoyl)phenyl)nicotinamide]
IC50 [1]: 50 to 100 nM
IC50 [2]: 50 to 100 nM

Cc1nc(F)ccc1Oc1cc(C(F)(F)F)c(Cl)cc1C(=O)Nc1ccnc([S@@](C)(=N)=O)c1 (single isomer, unassigned) [Example 5A]
IC50 [7]: 5 to 50 nM
IC50 [8]: 5 to 50 nM

Cc1nc(F)ccc1Oc1ncc(-c2ccc3c(c2)OCCO3)c(C)c1C(=O)Nc1cccc([S@](C)(=N)=O)c1 [Example 4C, (R)-5-(2,3-dihydrobenzo[b][1,4]dioxin-6-yl)-2-((6-fluoro-2-methylpyridin-3-yl)oxy)-4-methyl-N-(3-(S-methylsulfonimidoyl)phenyl)nicotinamide]
IC50 [1]: 5 to 50 nM
IC50 [2]: 5 to 50 nM

Cc1nc(F)ccc1Oc1cc(C(F)(F)F)c(Cl)c(C)c1C(=O)Nc1cccc(C(N)=O)c1 [Example 61A]
IC50 [7]: < 5 nM
IC50 [8]: < 5 nM

Cc1nc(F)ccc1Oc1ncc(C(F)(F)F)c(C)c1C(=O)Nc1cccc([S@@](C)(=O)=NC(=O)[C@@H]2CCOC2)c1 [Example 10D, 2-((6-fluoro-2-methylpyridin-3-yl)oxy)-4-methyl-N-(3-((R)—S-methyl-N—((R)-tetrahydrofuran-3-carbonyl)sulfonimidoyl)phenyl)-5-(trifluoromethyl)nicotinamide]
IC50 [9]: < 5 nM
IC50 [10]: < 5 nM

COc1cc(C#N)ccc1Oc1cc(C(F)(F)F)nnc1C(=O)Nc1cccc(S(C)(=O)=O)c1 [Example 38C, 4-(4-cyano-2-methoxyphenoxy)-N-(3-(methylsulfonyl)phenyl)-6-(trifluoromethyl)pyridazine-3-carboxamide]
IC50 [1]: > 200 nM
IC50 [2]: 100 to 200 nM

Cc1nc(F)ccc1Oc1ncc(-c2ccc(F)c(F)c2)c(C)c1C(=O)Nc1cccc(S(C)(=N)=N)c1 [Example 124C]
IC50 [1]: 5 to 50 nM
IC50 [2]: 5 to 50 nM

Cc1nc(F)ccc1Oc1ncc(C(F)(F)F)c(C)c1C(=O)Nc1cccc([S@@](C)(=O)=NC(=O)CN2CC(F)(F)C2)c1 [Example 29D, (R)—N-(3-(N-(2-(3,3-difluoroazetidin-1-yl)acetyl)-S-methylsulfonimidoyl)phenyl)-2-((6-fluoro-2-methylpyridin-3-yl)oxy)-4-methyl-5-(trifluoromethyl)nicotinamide]
IC50 [9]: < 5 nM
IC50 [10]: < 5 nM

Cc1nc(F)ccc1Oc1cc(C2CC2)c(C(F)(F)F)cc1C(=O)Nc1ccnc([S@](C)(=N)=O)c1 [Example 58A]
IC50 [7]: < 5 nM
IC50 [8]: < 5 nM

COc1cc(C#N)ccc1Oc1ncc(Cl)c(C)c1C(=O)Nc1cccc(S(C)(=N)=O)c1 (stereo not drawn) [Example 25C, 5-chloro-2-(4-cyano-2-methoxyphenoxy)-4-methyl-N-(3-(S-methylsulfonimidoyl)phenyl)nicotinamide]
IC50 [1]: < 5 nM
IC50 [2]: < 5 nM

Cc1nc(F)ccc1Oc1ncc(C(F)(F)F)c(C)c1C(=O)Nc1ccnc(C(N)=O)c1 [Example 120C]
IC50 [5]: 5 to 50 nM
IC50 [6]: 5 to 50 nM

Cc1nc(F)ccc1Oc1ccc(C(F)(F)F)c(C)c1C(=O)Nc1cccc([S@@](C)(=O)=NC(=O)[C@@H](C)N)c1 [Example 24B]
IC50 [3]: < 5 nM
IC50 [4]: < 5 nM

Cc1nc(F)ccc1Oc1ncc(C2CCC2)c(C)c1C(=O)Nc1ccnc([S@](C)(=N)=O)c1 [Example 98C]
IC50 [1]: 5 to 50 nM
IC50 [2]: 5 to 50 nM

Cc1nc(F)ccc1Oc1cc(C(F)(F)F)c(Cl)cc1C(=O)Nc1ccc([S@@](C)(=N)=O)cc1 [Example 48A]
IC50 [7]: 50 to 100 nM
IC50 [8]: 50 to 100 nM
